GI50 and TGI data for seven molecules are collected here from PubChem BioAssay (NCI).

Among the test systems are UO-31 renal; OVCAR-4 ovarian; SN12C renal; LOX IMVI melanoma; HCC-2998 colon; MDA-MB-435; SF-295 CNS; U251 CNS; HCT-116 colon; HL-60(TB) leukemia.
What all share (experiment): inhibition of tumour cell growth, NCI panel, 48 h

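Protocol summary: plate cells (96-well), add compound at 5 concentrations, incubate 48 h, interpolate endpoints linearly. GI50: concentration for 50% inhibition of growth. TGI denotes the concentration required for complete inhibition of growth.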

As to `Clc1nc(Cl)nc(Nc2cccc3ccccc23)n1`, the GI50 was 26.5 µM in the experiment on UO-31 renal; greater than 100 µM in the experiment with OVCAR-4 ovarian; greater than 100 µM in the experiment on SN12C renal; 33.5 µM in the experiment on LOX IMVI melanoma; greater than 100 µM in the experiment on HCC-2998 colon; 43.6 µM in the experiment on MDA-MB-435. Besides, the GI50 is 64 µM with SF-295 CNS, greater than 100 µM with U251 CNS, 47.1 µM in the experiment with HCT-116 colon and greater than 100 µM in the experiment with HL-60(TB) leukemia. Further, the TGI in the experiment on UO-31 renal, in the experiment with OVCAR-4 ovarian, with SN12C renal, with LOX IMVI melanoma, in the experiment on HCC-2998 colon and in the experiment with MDA-MB-435 was greater than 100 µM each time. In addition, the TGI with SF-295 CNS, in the experiment with U251 CNS, in the experiment on HCT-116 colon and with HL-60(TB) leukemia was greater than 100 µM throughout.

Regarding `C=CCc1ccc(O)c(-c2ccc(O)c(CC=C)c2)c1`, the GI50 in the experiment on UO-31 renal was 12.4 µM; in the experiment with OVCAR-4 ovarian, 15.5 µM; in the experiment with SN12C renal it was 14.4 µM; in the experiment with LOX IMVI melanoma it was 15.7 µM; with HCC-2998 colon it was 18.4 µM; in the experiment with MDA-MB-435 it was 14.7 µM. In addition, the GI50 with SF-295 CNS was 19.6 µM; in the experiment with U251 CNS, 14.3 µM; in the experiment on HCT-116 colon it was 20 µM; with HL-60(TB) leukemia, 9.66 µM. Moreover, the TGI came to 27.3 µM with UO-31 renal; 35.8 µM in the experiment with OVCAR-4 ovarian; 29.6 µM in the experiment on SN12C renal; 34.3 µM with LOX IMVI melanoma; 36.5 µM in the experiment with HCC-2998 colon; 31.5 µM in the experiment with MDA-MB-435. Besides, the TGI is 44.7 µM with SF-295 CNS, 31.8 µM in the experiment on U251 CNS, greater than 54 µM in the experiment with HCT-116 colon and greater than 52.3 µM in the experiment on HL-60(TB) leukemia.

For `O=C1CCC/C=C\C[C@H]2C=CC(=O)/C2=C/C[C@H](C/C=C\CC(F)(F)F)O1`, the GI50 in the experiment on UO-31 renal is 0.298 µM; in the experiment with OVCAR-4 ovarian, 0.571 µM; in the experiment on SN12C renal, 0.492 µM; with LOX IMVI melanoma, 0.288 µM; with HCC-2998 colon, 0.384 µM; in the experiment on MDA-MB-435, 0.449 µM. Also, the GI50 in the experiment with SF-295 CNS was 0.401 µM; with U251 CNS it was 0.419 µM; in the experiment on HCT-116 colon, 0.311 µM; in the experiment on HL-60(TB) leukemia it was 0.495 µM. Moreover, the TGI in the experiment with UO-31 renal worked out at 0.624 µM; in the experiment with OVCAR-4 ovarian, 2.5 µM; in the experiment on SN12C renal, 2.04 µM; in the experiment with LOX IMVI melanoma, 0.591 µM; in the experiment on HCC-2998 colon, 0.733 µM; with MDA-MB-435, 1.42 µM. The TGI in the experiment with SF-295 CNS turned out to be 1.13 µM; in the experiment on U251 CNS, 1.75 µM; in the experiment on HCT-116 colon, 0.614 µM; in the experiment with HL-60(TB) leukemia, 2.58 µM.

`O=[N+]([O-])c1ccc(CI)cc1`: the GI50 with UO-31 renal is 1.79 µM; in the experiment on OVCAR-4 ovarian, 3.6 µM; with SN12C renal, 2 µM; in the experiment with LOX IMVI melanoma, 1.3 µM; in the experiment with HCC-2998 colon it was 3.43 µM; with MDA-MB-435 it was 2.89 µM. For the same molecule, the GI50 was 3.76 µM with SF-295 CNS, 2.91 µM in the experiment with U251 CNS, 0.9 µM in the experiment with HCT-116 colon and 2.24 µM with HL-60(TB) leukemia. Besides, the TGI turned out to be 3.59 µM in the experiment on UO-31 renal; 18.6 µM with OVCAR-4 ovarian; 5.39 µM in the experiment on SN12C renal; 2.9 µM in the experiment on LOX IMVI melanoma; 11.8 µM in the experiment on HCC-2998 colon; 9.62 µM in the experiment on MDA-MB-435. In addition, the TGI in the experiment with SF-295 CNS turned out to be 13.7 µM; in the experiment on U251 CNS, 10.4 µM; in the experiment with HCT-116 colon, 2.95 µM; in the experiment with HL-60(TB) leukemia it was 5.22 µM.

Regarding `O=[N+]([O-])c1cccc2ccc(N/N=C/c3ccccc3O)nc12`, the GI50 in the experiment on UO-31 renal is greater than 39.9 µM; in the experiment with OVCAR-4 ovarian it was greater than 100 µM; with SN12C renal it was greater than 100 µM; in the experiment on LOX IMVI melanoma, greater than 100 µM; with HCC-2998 colon, greater than 100 µM; in the experiment on MDA-MB-435 it was greater than 100 µM. Also, the GI50 in the experiment on SF-295 CNS was greater than 87.6 µM; in the experiment on U251 CNS, greater than 59.7 µM; in the experiment with HCT-116 colon it was 2.19 µM; in the experiment on HL-60(TB) leukemia it was 1.74 µM. Further, the TGI with UO-31 renal, in the experiment with OVCAR-4 ovarian, with SN12C renal, in the experiment on LOX IMVI melanoma, in the experiment with HCC-2998 colon and in the experiment on MDA-MB-435 was greater than 100 µM each time. Further, the TGI in the experiment with SF-295 CNS, with U251 CNS, in the experiment with HCT-116 colon and in the experiment with HL-60(TB) leukemia was greater than 100 µM in each case.

Consider `C[C@H]1CN[C@@H]2[C@@H](C)[C@H]3[C@@H](C[C@H]4[C@@H]5CC[C@H]6C[C@@H](N)CC[C@]6(C)[C@H]5CC[C@]34C)O[C@@]2(O)C1`, for which the TGI in the experiment on UO-31 renal amounted to 5.79 µM; in the experiment with OVCAR-4 ovarian, 17.5 µM; with SN12C renal, 4.25 µM; in the experiment on LOX IMVI melanoma it was 4.08 µM; in the experiment with HCC-2998 colon it was 6.23 µM; with MDA-MB-435, 3.71 µM. Further, the TGI worked out at 10.3 µM in the experiment on SF-295 CNS, 4.9 µM in the experiment on U251 CNS, 3.14 µM with HCT-116 colon and 4.08 µM with HL-60(TB) leukemia.

Take `COc1ccc(C2=C(c3ccc(OC)cc3)C(=O)N3CCCC3C2)cc1` (stereo not given): the GI50 in the experiment with UO-31 renal was 19.7 µM; with OVCAR-4 ovarian it was 15.5 µM; in the experiment with SN12C renal, 22.5 µM; in the experiment with LOX IMVI melanoma it was 3.87 µM; in the experiment on HCC-2998 colon, 26.4 µM; with MDA-MB-435 it was 12.3 µM. Moreover, the GI50 with SF-295 CNS is 9.26 µM; in the experiment on U251 CNS, 5.99 µM; in the experiment on HCT-116 colon it was 2.96 µM; in the experiment on HL-60(TB) leukemia it was 4.36 µM. For the same molecule, the TGI in the experiment with UO-31 renal was greater than 100 µM; in the experiment on OVCAR-4 ovarian, greater than 100 µM; with SN12C renal it was greater than 100 µM; with LOX IMVI melanoma it was 25.6 µM; in the experiment on HCC-2998 colon, 93.4 µM; with MDA-MB-435, greater than 100 µM. Also, the TGI in the experiment with SF-295 CNS was greater than 100 µM; with U251 CNS, greater than 100 µM; with HCT-116 colon it was 32.8 µM; in the experiment on HL-60(TB) leukemia, 28.4 µM.
